Test results from patent US20090075867A1, “Triazine compounds and compositions thereof for the treatment of cancers” (priority 2005, published 2009).
Read-outs that look alike come from different tables or passages of the source.

Key:
[1] = tested on: P815, murine mastocytoma cell; assay: In vitro cytotoxicity (MTT) on P815; type: cell-based; conditions: Mus musculus
Procedure: (§1) This assay was performed to determine the effect of compounds of the present invention on cell cytotoxicity. Cells were incubated in presence or absence of compounds in their respective conditioned media. […] The supernatant was discarded and 100 μl of dimethylsulfoxide (DMSO) was added. Absorbance was read at […] with an ELISA Tecan SUNRISE™ plate reader. The control group consisted of cells without compounds and is referred to as 100% of viable cells. IC50 was determined using PRISM® software.
(§2) The predictive utility of cell-based cytotoxicity assays to assess the potential in vivo anticancer activity of compounds with selected cancer cell lines is well established in the art and the use of whole cells, instead of isolated protein receptors or enzymes, provides a more reliable determination of activity. See, for example, Paull et al. J. Natl. Cancer Inst. 81:1088-1092 (1989); Monks et al. J. Natl. Cancer Inst. 83:757-766 (1991); Bandes et al. J. Natl. Cancer Inst. 86:770-775 (1994); and Kamate et al. Intl. J. Cancer 100:571-579 (2002).

[2] = tested on: PC-3, human prostate carcinoma cell; assay: In vitro cytotoxicity (MTT) on PC-3; type: cell-based
Procedure: as §1, §2

[3] = tested on: B16F10, murine melanoma cell; assay: In vitro cytotoxicity (MTT) on B16F10; type: cell-based; conditions: Mus musculus, B16-F10
Procedure: as §1, §2

[4] = tested on: DA-3; assay: In vitro cytotoxicity (MTT) on DA-3; type: cell-based, BALB/c mice; conditions: Mus musculus
Procedure: as §1, §2
The syngeneic tumor DMBA3 (DA-3, breast carcinoma model) arose from a preneoplastic lesion treated with 7,12-dimethylbenzanthracene in female BALB/c mice. DA-3 cells were grown as monolayer cultures in plastic flasks in RPMI-1640 containing 0.1 mM nonessential amino acids, 0.1 μM sodium pyruvate, 2 mM L-glutamine. This was further supplemented with 50 μM 2-mercaptoethanol and 10% fetal bovine serum. The DA-3 tumors were serially passage in vivo by intradermal inoculation of 5×10^5 viable tumor cells to produce localized tumors in 6- to 8-week old BALB/c mice. The animals were then serially monitored by manual palpation for evidence of tumor. Mice were treated at day 11, 18 and 25 with cyclophosphamide (100 mg/kg) and at day 11, 12, 13, 15, 18, 20, 22, 25, 27 and 29 with compound 1, 2, 3 or 8 (50 mg/kg). Mice were sacrificed at day 43. Serial tumor volume was obtained by bi-dimensional diameter measurements with calipers, using the formula 0.4 (a×b^2) where “a” was the major tumor diameter and “b” the minor perpendicular diameter. […] The National Cancer Institute (USA) defines the product as effective if T/C is ≦40%.

[5] = tested on: B16F10 lung metastases; type: in vivo
Procedure: Female 6-8-week old C57BL/6 mice were injected intravenously on day 0 with 1-2.5×10^5 B16F10 melanoma cells from ATCC (source of cell culture, Dr. I. J. Fidler). B16F10 melanoma cells are a highly metastatic cell line which preferentially forms nodules in the lungs. Cells were cultured in DMEM supplemented with 10% fetal bovine serum. […] Fourteen days after inoculation, mice were sacrificed and their lungs were removed, rinsed in PBS, and placed in Bouin's fixative. The number of metastatic nodules (black colonies) on the surface of the lungs were counted.

[6] = tested on: NHDF, Normal Human Dermal Fibroblast; assay: In vitro cytotoxicity (MTT) on NHDF; type: cell-based
Procedure: as §1, §2

[7] = tested on: PBML, Peripheral Blood Mononuclear Leukocytes; assay: In vitro cytotoxicity (MTT) on PBML; type: cell-based; conditions: Leukocyte
Procedure: as §1, §2

[8] = tested on: CAKI-2, human kidney cell; assay: In vitro cytotoxicity (MTT) on CAKI-2; type: cell-based
Procedure: as §1, §2

[9] = tested on: Hep-G2, human liver cell; assay: In vitro cytotoxicity (MTT) on Hep-G2; type: cell-based
Procedure: as §1, §2

[10] = FIG. 3, 50 mg/kg i.v. on day -3, -2, -1, 3, 5 and 7, p<0.001

| Structure (SMILES) | IC50 ([1]; 24-hour cell culture) [µM] | IC50 ([1]; 72-hour cell culture) [µM] | IC50 ([2]; 24-hour cell culture) [µM] | IC50 ([2]; 72-hour cell culture) [µM] | IC50 ([3]; 24-hour cell culture) [µM] | IC50 ([3]; 72-hour cell culture) [µM] | IC50 ([4]; 24-hour cell culture) [µM] | inhibition of the number of tumor nodules in lungs [5, 10] | IC50 ([6]; 24-hour cell culture) [µM] | IC50 ([6]; 72-hour cell culture) [µM] | IC50 ([7]; 24-hour cell culture) [µM] | IC50 ([7]; 72-hour cell culture) [µM] | IC50 ([8]; 24-hour cell culture) [µM] | IC50 ([9]; HepG2, 24-hour cell culture) [µM] | IC50 ([4]; 72-hour cell culture) [µM] | inhibition of the number of tumor nodules in lungs ([5]; FIG. 5, p<0.05) [%] | reduction of the number of tumor nodules ([5]; FIG. 4, used alone, compound 50 mg/kg i.v., doxorubicin 1 mg/kg) [%] | IC50 ([8]; 72-hour cell culture) [µM] | IC50 ([9]; HepG2, 72-hour cell culture) [µM] |
| --- | --- | --- | --- | --- | --- | --- | --- | --- | --- | --- | --- | --- | --- | --- | --- | --- | --- | --- | --- |
| CN(C)c1nc(Nc2ccc(CCNc3nc(NCCO)nc(Nc4cccc(N)c4)n3)cc2)nc(Nc2cccc(N)c2)n1 [Compound 16] | 12.6 | 2.4 | 20.3 | 5.1 | 0.5 | 3.5 | – | – | – | – | – | – | – | – | – | – | – | – | – |
| CC(Nc1nc(Nc2cccc(N)c2)nc(Nc2cccc(N)c2)n1)c1cccc(N)c1 (centres unmarked) [Compound 10] | > 100 | 36.6 | 74 | – | 62 | 36 | > 100 | significant inhibition | > 100 | > 100 | > 100 | > 100 | – | – | – | – | – | – | – |
| Nc1cccc(Nc2nc(NCCO)nc(Nc3ccc(Nc4nc(NCCO)nc(Nc5cccc(N)c5)n4)cc3)n2)c1 [Compound 4] | 86 | 32 | 78 | 37 | 12 | 37 | – | – | > 100 | > 100 | 100 | > 100 | – | – | – | – | – | – | – |
| Nc1cccc(Nc2nc(NCCO)nc(NCc3cccc(F)c3)n2)c1 [Compound 9] | > 100 | 43 | > 100 | > 100 | > 100 | 91 | – | – | > 100 | > 100 | > 100 | > 100 | – | – | – | – | – | – | – |
| Nc1cccc(Nc2nc(N)nc(Nc3cccc(Nc4nc(N)nc(Nc5cccc(N)c5)n4)c3)n2)c1 [Compound 5] | > 100 | 44.7 | 50 | 26 | 8.5 | 39 | 20 | – | > 100 | 78 | > 100 | > 100 | – | – | – | – | – | – | – |
| Nc1ccc(CCNc2nc(NCCNc3nc(NCCc4ccc(N)cc4)nc(Nc4cccc(N)c4)n3)nc(Nc3cccc(N)c3)n2)cc1 [Compound 3] | 33 | 3 | > 100 | 15 | 4 | 6 | – | – | > 100 | > 100 | > 100 | > 100 | > 40 | > 40 | – | – | – | – | – |
| Nc1cccc(Nc2nc(NCCO)nc(Nc3ccc(Nc4nc(NCCO)nc(Nc5cccc(F)c5)n4)cc3)n2)c1 [Compound 19] | 16.4 | 8.6 | 8.2 | 5.7 | 2.8 | 6.2 | 4.5 | – | 19.4 | – | – | – | – | – | 13.4 | – | – | – | – |
| Nc1cccc(Nc2nc(NCCO)nc(Nc3cccc(Nc4nc(NCCO)nc(Nc5cccc(N)c5)n4)c3)n2)c1 [Compound 6] | > 100 | > 100 | 63 | – | 2.6 | – | 30 | – | > 100 | > 100 | > 100 | > 100 | – | – | – | – | – | – | – |
| CN(C)c1nc(NCCc2ccc(Nc3nc(NCCO)nc(Nc4cccc(N)c4)n3)cc2)nc(Nc2cccc(N)c2)n1 [Compound 12] | 13.5 | 2.8 | 11 | 3.3 | 1.2 | 2 | – | – | – | – | – | – | – | – | – | – | – | – | – |
| Nc1cccc(Nc2nc(NCCO)nc(Nc3cccc(Nc4nc(NCCO)nc(Nc5cccc(F)c5)n4)c3)n2)c1 [Compound 14] | 13.1 | 7.8 | 29.9 | 15.6 | 2.6 | 10.2 | – | – | – | – | – | – | – | – | – | 50 | – | – | – |
| Nc1cccc(Nc2nc(NCCNc3nc(Nc4cccc(N)c4)nc(Nc4cccc(O)c4)n3)nc(Nc3cccc(O)c3)n2)c1 [Compound 11] | 21.2 | 4.8 | 4.4 | 4.9 | 1.4 | 6.3 | – | – | – | – | – | – | – | – | – | – | – | – | – |
| CN(C)c1nc(NCCc2ccc(Nc3nc(Nc4cccc(N)c4)nc(N(C)C)n3)cc2)nc(Nc2cccc(N)c2)n1 [Compound 7] | 20 | 1.3 | 85 | 8 | 2.2 | 3 | – | – | > 100 | > 100 | > 100 | 79 | – | – | – | – | – | – | – |
| Nc1cccc(CCNc2nc(Nc3ccc(CCNc4nc(NCCO)nc(Nc5cccc(N)c5)n4)cc3)nc(Nc3cccc(N)c3)n2)c1 [Compound 15] | 13.4 | 3.3 | 10.9 | 4.3 | 1.8 | 2.9 | – | – | – | – | – | – | – | – | – | – | – | – | – |
| COc1cccc2c1C(=O)c1c(O)c3c(c(O)c1C2=O)C[C@@](O)(C(=O)CO)C[C@@H]3O[C@H]1C[C@H](N)[C@H](O)[C@H](C)O1 [doxorubicin, reference compound] | – | – | – | – | – | – | – | – | – | – | – | – | – | – | – | – | 90 | – | – |
| Oc1ccc(CCNc2nc(NCCNc3nc(NCCc4ccc(O)cc4)nc(Nc4ccccc4)n3)nc(Nc3ccccc3)n2)cc1 [Compound 1] | 34 | 34 | 8.3 | 8.3 | 6 | 6 | 4 | significant inhibition | > 100 | 16 | 98 | 45 | > 40 | 19 | 4.2 | – | – | 15 | 23 |
| Nc1cccc(Nc2nc(NCCO)nc(NCCc3ccc(Nc4nc(NCCc5ccccc5N)nc(Nc5cccc(N)c5)n4)cc3)n2)c1 [Compound 17] | 14.5 | 1.5 | 11.6 | 4 | 1.2 | 3.6 | – | – | – | – | – | – | – | – | – | – | – | – | – |
| CN1CCN(c2nc(NCCc3ccc(Nc4nc(Nc5cccc(N)c5)nc(N5CCN(C)CC5)n4)cc3)nc(Nc3cccc(N)c3)n2)CC1 [Compound 18] | 2.5 | 0.7 | 12.2 | 10.3 | 1.1 | 0.6 | – | – | – | – | – | – | – | – | – | – | – | – | – |
| CN1CCN(c2nc(Nc3ccc(CCNc4nc(NCCO)nc(Nc5cccc(N)c5)n4)cc3)nc(Nc3cccc(N)c3)n2)CC1 [Compound 13] | 6.5 | 2.1 | 11 | 6.1 | 1.9 | 2.2 | – | – | – | – | – | – | – | – | – | – | – | – | – |
